Data set [1] deals with T1, Interleukin-1 receptor type 1 (Homo sapiens) (UniProt P14778).
T1 sequence (whole entry): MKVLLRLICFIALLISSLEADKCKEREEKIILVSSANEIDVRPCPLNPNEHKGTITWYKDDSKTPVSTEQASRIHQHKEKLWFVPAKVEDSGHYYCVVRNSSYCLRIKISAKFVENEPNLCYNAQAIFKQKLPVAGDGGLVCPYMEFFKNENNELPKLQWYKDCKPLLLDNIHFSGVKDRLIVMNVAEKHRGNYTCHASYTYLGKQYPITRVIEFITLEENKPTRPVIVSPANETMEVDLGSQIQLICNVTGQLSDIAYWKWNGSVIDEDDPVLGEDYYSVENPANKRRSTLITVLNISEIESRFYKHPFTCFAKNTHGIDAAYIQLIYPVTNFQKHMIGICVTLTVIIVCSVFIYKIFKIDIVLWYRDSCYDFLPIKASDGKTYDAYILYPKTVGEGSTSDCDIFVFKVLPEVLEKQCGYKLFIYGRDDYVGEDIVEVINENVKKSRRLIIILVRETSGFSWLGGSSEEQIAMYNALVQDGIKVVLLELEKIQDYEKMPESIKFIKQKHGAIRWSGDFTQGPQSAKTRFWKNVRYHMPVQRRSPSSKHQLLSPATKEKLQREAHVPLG
The experiment in a line: Activation of IL-1R in human monocytes assessed as inhibition of IL-1beta-stimulated TNF-alpha production preincubated for 30 mins prior to IL-1beta stimulation at 1 uM measured after 6 hrs by immunoassay. Format: cell-based.

Data set [2] has as its system Intestinal mucosa. In words: Inhibition of IL6 production in intestinal mucosa derived from ulcerative colitis patient measured after 24 hrs by sandwich ELISA. Format: functional, tissue-based. The note with it: Homo sapiens.
A further data set deals with Mus musculus. The experiment in a line: Antiinflammatory activity in C57Bl/6 mouse assessed as inhibition of FK156-induced serum KC level at 0.1 to 100 mg/kg, po for 15 mins prior to FK156-challenge measured after 2.5 hrs by FACS analysis. Format: functional, organism-based.
Data set [3] in a line: Half life in C57BL/6 mouse at 2 mg/kg, po or 1 mg/kg, iv by LC-MS/MS analysis. Format: ADME, organism-based. To be noted: in vivo.
A short description of data set [4]: Oral bioavailability in Sprague-Dawley rat at 2 mg/kg by LC-MS/MS analysis. Format: ADME, organism-based. The note with it: in vivo.
In data set [5] the target is Vascular endothelial growth factor receptor 2 (Homo sapiens, UniProt P35968).
In data set [6] the target is Receptor-interacting serine/threonine-protein kinase 2 (Rattus norvegicus, UniProt G3V783). In words: Inhibition of rat RIPK2 preincubated for 10 mins followed by addition of fluorescent-labeled 2-Methyl-5-(2-propen-l-yloxy)aniline measured after 10 mins by fluorescence polarization assay.
Data set [7] has as its target Protein-tyrosine kinase 6 (Homo sapiens) (UniProt Q13882). The experiment in a line: Inhibition of human full length N-terminal GST-tagged BRK expressed in baculovirus expression system at 1 uM.
Data set [8] can be described thus: Cmax in C57BL/6 mouse at 2 mg/kg, po by LC-MS/MS analysis. To be noted: in vivo. Format: ADME, organism-based. Also on record: dose 2 mg/kg, route oral.
In data set [9] the target is T2, Nucleotide-binding oligomerization domain-containing protein 1 (Homo sapiens) (UniProt Q9Y239).
T2 sequence (whole entry): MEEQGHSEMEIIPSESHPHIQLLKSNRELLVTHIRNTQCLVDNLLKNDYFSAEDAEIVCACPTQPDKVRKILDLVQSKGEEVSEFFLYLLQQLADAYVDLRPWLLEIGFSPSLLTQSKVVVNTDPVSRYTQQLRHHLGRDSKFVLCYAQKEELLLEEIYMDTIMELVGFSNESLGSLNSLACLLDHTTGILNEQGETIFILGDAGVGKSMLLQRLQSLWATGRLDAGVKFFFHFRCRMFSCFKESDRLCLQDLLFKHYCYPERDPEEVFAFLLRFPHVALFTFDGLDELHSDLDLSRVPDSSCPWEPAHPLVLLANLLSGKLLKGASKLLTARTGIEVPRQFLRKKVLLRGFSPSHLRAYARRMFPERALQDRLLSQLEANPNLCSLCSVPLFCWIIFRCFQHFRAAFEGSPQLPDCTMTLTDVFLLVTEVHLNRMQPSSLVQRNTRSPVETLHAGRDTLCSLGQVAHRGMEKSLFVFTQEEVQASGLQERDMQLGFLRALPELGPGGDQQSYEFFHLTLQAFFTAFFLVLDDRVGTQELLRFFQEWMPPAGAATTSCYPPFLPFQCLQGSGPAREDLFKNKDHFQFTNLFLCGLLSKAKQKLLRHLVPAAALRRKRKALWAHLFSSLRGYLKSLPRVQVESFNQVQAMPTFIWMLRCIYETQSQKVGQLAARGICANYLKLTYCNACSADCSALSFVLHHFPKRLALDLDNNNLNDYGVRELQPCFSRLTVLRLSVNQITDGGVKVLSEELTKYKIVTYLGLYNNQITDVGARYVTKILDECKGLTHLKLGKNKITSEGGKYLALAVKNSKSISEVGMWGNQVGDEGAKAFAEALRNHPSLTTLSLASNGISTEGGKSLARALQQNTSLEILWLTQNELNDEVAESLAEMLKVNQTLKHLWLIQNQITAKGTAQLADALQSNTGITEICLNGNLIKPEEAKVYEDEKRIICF
In words: Activation of NOD1 in human monocytes assessed as inhibition of ieDAP-stimulated IL8 production preincubated for 30 mins prior to ieDAP stimulation at 1 uM measured after 6 hrs by immunoassay. Format: cell-based.

A further data set is filed under the species Homo sapiens. In words: Activation of TFNR in human monocytes assessed as inhibition of TNF-alpha-stimulated IL8 production preincubated for 30 mins prior to TNF-alpha stimulation at 1 uM measured after 6 hrs by immunoassay. Format: cell-based.
Data set [10] has as its system Intestinal mucosa. The experiment in a line: Inhibition of IL6 production in intestinal mucosa derived from Crohn's disease patient measured after 24 hrs by sandwich ELISA. Format: functional, tissue-based. The note with it: Homo sapiens.
Data set [11] can be described thus: Fraction unbound in Sprague-Dawley rat blood at 2 mg/kg, po or 1 mg/kg, iv. Format: ADME, organism-based. To be noted: whole blood.
Data set [12] is described as follows: Oral bioavailability in C57BL/6 mouse at 2 mg/kg by LC-MS/MS analysis. To be noted: in vivo. Format: ADME, organism-based.
The target of data set [13] is Receptor-interacting serine/threonine-protein kinase 3 (Homo sapiens, UniProt Q9Y572). The experiment in a line: Inhibition of RIPK3 (unknown origin) preincubated for 10 mins followed by addition of fluorescent-labeled 2-Methyl-5-(2-propen-l-yloxy)aniline measured after 10 mins by fluorescence polarization assay.
Data set [14] concerns the target Toll-like receptor 4 (Homo sapiens) (UniProt O00206). The experiment in a line: Activation of TLR4 receptor in human monocytes assessed as inhibition of LPS-stimulated TNF-alpha production preincubated for 30 mins prior to LPS stimulation at 1 uM measured after 6 hrs by immunoassay. Format: cell-based.
Data set [15] concerns Intestinal mucosa. In words: Inhibition of TNFalpha production in intestinal mucosa derived from Crohn's disease patient measured after 24 hrs by sandwich ELISA. The note with it: Homo sapiens. Format: functional, tissue-based.
Data set [16] is described as follows: Clearance in C57BL/6 mouse at 2 mg/kg, po or 1 mg/kg, iv by LC-MS/MS analysis. Format: ADME, organism-based. The note with it: in vivo.
In data set [17] the target is Nucleotide-binding oligomerization domain-containing protein 2 (Homo sapiens) (UniProt Q9HC29). The experiment in a line: Activation of NOD2 in human monocytes assessed as inhibition of MDP-stimulated TNF-alpha production preincubated for 30 mins prior to MDP stimulation measured after 6 hrs by immunoassay. Format: cell-based.

The source made the active and inactive calls. The rule behind the calls is not given here. A value given as a limit tells only on which side of the number the result lay.

Sequence of Nucleotide-binding oligomerization domain-containing protein 2 (Homo sapiens) (Q9HC29 whole entry, the tested form may be a part): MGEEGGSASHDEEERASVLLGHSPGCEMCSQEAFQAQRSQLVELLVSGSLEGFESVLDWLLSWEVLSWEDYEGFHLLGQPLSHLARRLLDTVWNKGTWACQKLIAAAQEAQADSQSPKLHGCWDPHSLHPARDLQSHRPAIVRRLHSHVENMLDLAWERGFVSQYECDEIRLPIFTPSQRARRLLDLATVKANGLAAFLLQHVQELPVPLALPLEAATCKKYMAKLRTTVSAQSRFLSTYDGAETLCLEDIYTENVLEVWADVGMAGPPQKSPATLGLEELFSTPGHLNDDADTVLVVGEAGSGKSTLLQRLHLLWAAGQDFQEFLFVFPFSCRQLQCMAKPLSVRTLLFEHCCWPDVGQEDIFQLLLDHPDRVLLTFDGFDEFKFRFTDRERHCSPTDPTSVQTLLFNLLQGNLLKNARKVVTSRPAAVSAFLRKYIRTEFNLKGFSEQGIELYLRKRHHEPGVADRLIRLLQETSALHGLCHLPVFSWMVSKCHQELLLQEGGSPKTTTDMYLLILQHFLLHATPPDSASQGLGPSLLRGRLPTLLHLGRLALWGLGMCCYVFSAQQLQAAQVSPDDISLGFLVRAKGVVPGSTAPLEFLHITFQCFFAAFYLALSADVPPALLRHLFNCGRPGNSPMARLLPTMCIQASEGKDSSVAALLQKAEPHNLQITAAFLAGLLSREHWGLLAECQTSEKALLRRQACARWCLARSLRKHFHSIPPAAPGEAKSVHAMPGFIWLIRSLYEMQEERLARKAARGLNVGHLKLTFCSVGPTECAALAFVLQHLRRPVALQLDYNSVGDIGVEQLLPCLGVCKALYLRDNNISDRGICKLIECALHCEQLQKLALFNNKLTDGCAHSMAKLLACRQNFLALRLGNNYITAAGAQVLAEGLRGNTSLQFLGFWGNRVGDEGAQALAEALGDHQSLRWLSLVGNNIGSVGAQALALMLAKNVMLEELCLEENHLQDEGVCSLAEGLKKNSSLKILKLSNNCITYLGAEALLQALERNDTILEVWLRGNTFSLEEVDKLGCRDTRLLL
Sequence of Receptor-interacting serine/threonine-protein kinase 2 (G3V783 whole entry): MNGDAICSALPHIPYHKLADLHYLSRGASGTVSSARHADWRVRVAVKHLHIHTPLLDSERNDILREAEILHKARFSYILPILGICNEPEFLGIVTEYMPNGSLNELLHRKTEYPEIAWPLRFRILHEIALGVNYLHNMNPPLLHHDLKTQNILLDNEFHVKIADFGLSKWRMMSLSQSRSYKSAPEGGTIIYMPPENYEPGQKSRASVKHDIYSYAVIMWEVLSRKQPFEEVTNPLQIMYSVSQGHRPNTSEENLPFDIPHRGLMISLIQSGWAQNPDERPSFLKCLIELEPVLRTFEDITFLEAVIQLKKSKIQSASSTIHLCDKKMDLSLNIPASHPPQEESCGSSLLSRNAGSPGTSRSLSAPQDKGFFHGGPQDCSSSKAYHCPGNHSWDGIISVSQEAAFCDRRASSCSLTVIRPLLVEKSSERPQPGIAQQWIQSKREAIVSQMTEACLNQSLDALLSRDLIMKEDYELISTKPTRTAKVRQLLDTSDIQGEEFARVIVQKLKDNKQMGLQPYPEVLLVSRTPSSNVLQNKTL
Sequence of Protein-tyrosine kinase 6 (Homo sapiens) (Q13882 whole entry, looked up): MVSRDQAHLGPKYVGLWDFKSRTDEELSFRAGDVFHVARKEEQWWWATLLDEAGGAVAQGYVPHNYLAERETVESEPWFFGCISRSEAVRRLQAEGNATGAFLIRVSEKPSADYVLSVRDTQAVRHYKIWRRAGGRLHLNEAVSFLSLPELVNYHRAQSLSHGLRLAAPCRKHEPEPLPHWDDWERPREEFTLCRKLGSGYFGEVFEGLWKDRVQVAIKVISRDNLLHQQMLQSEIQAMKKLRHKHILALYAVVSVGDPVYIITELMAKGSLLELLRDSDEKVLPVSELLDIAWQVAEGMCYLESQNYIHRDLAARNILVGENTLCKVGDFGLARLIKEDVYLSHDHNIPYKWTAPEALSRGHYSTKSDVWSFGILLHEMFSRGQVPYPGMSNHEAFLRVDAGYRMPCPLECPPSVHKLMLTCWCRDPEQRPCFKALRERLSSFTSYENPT
Sequence of Vascular endothelial growth factor receptor 2 (P35968 whole entry): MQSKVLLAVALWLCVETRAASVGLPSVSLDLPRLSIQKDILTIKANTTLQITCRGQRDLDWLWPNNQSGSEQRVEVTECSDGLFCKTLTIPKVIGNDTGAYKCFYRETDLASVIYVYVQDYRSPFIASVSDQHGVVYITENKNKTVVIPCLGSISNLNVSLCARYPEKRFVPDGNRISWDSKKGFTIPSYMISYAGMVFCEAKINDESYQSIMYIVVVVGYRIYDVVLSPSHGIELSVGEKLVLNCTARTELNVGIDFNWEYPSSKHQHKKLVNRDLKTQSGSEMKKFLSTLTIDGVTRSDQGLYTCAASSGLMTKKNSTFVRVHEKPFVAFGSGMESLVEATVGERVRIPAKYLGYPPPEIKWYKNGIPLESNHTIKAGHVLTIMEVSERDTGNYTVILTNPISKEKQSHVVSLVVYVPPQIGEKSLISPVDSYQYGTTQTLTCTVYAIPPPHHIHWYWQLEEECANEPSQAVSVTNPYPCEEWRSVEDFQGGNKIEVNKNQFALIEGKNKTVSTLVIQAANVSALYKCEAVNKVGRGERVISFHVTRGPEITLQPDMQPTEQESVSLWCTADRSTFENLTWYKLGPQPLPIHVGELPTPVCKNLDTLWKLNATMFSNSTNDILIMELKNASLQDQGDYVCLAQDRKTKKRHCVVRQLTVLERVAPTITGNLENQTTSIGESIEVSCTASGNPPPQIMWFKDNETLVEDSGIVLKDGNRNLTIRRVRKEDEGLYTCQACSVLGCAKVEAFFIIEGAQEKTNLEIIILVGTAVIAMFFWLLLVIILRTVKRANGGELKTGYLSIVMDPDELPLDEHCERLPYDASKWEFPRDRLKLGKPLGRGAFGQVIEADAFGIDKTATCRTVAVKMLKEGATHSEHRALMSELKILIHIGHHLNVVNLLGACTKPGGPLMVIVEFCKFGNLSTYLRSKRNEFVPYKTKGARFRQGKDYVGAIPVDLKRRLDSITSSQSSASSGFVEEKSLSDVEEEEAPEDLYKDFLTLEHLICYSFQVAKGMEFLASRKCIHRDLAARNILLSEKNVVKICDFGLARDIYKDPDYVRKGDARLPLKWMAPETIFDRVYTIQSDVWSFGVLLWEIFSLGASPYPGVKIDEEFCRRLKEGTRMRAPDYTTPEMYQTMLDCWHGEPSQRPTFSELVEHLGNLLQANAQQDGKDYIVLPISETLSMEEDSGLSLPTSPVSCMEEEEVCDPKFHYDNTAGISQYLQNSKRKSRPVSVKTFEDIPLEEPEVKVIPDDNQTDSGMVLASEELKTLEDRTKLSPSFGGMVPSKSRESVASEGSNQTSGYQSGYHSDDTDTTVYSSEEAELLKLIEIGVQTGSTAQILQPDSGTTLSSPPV
Sequence of Toll-like receptor 4 (Homo sapiens) (O00206 whole entry): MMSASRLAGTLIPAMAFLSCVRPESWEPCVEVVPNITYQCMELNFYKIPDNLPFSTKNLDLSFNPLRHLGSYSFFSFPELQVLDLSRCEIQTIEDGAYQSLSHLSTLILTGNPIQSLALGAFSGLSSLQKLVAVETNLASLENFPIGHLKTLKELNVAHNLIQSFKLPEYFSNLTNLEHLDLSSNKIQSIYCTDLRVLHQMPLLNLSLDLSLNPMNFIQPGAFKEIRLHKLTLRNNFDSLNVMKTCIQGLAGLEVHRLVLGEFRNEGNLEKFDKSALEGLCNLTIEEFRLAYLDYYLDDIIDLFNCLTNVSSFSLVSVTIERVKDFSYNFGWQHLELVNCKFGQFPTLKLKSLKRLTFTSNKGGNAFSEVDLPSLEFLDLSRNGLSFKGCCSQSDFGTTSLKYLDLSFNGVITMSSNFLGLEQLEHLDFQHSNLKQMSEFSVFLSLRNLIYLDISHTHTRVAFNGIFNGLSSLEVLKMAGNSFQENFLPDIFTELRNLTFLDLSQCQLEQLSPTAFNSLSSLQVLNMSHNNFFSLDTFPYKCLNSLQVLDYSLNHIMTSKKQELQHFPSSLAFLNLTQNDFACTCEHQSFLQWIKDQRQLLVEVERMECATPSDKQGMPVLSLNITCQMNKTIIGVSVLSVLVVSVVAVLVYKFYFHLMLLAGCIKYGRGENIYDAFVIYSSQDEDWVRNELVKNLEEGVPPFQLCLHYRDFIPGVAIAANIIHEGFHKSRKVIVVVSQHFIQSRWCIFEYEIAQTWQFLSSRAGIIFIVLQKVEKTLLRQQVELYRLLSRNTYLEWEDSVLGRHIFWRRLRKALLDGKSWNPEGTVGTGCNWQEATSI
Sequence of Receptor-interacting serine/threonine-protein kinase 3 (Q9Y572 whole entry): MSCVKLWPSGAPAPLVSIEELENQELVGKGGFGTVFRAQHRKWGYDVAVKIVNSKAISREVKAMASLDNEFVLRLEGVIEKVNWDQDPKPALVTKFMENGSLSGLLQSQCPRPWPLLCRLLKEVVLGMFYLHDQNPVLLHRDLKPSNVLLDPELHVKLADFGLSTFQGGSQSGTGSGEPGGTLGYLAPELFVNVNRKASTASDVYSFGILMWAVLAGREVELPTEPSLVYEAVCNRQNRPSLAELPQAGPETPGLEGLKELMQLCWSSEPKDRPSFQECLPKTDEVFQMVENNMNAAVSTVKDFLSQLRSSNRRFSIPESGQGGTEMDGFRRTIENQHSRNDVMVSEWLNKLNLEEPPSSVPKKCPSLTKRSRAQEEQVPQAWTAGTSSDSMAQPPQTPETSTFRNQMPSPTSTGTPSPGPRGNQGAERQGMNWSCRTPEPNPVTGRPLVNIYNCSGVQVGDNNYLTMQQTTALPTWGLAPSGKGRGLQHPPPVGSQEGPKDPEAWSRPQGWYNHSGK

Regarding `CC(C)(C)S(=O)(=O)c1ccc2nccc(Nc3n[nH]c4ccc(F)cc34)c2c1`, the inhibition entry (in data set [1]; with Mus musculus; in data set [9]; in the data set listed under Homo sapiens; in data set [14]; in [17]) was “Active” each time. Moreover, the inhibition result with Intestinal mucosa [2] was “Dose-dependent effect”; in data set [7], 30%; in the data set with Intestinal mucosa [10], “Dose-dependent effect”; in the data set on Intestinal mucosa [15] it was “Dose-dependent effect”. Moreover, in [3], the half-life is 2.1 h. For the same compound, the bioavailability is 39% in data set [4] and 34% in [12]. The figures for the IC50 in data set [5], in data set [6] and in data set [13] were over 5000 nM, 2 nM and 16 nM, respectively. This compound also displayed a Cmax in data set [8] of 340 ng/mL. In data set [11], this compound showed a fraction unbound of 0.026. For the same compound, in data set [16], the clearance worked out at 13 mL/min/kg.

These data come from ChEMBL document CHEMBL3822396 (J Med Chem, 2016).
